Where no end group is shown, it is not given here. [ ]: non-standard residue; d: D form.

The target of one experiment is T1, μ receptor (Homo sapiens, UniProt P35372).
T1 construct: An adenylyl cyclase assay using human SH-SY5Y neuroblastoma cell line membranes; endogenous in cells; host or cells: human SH-SY5Y neuroblastoma cells, differentiated with retinoic acid; membranes
Briefly: Adenylyl cyclase assay using human SH-SY5Y neuroblastoma cell line membranes. Format: biochemical.

For another experiment, the system named is MU RECEPTOR
Briefly: Mu receptor agonist or antagonist activity, by either the adenylyl cyclase assay or the GPI assay (Table 13).

T1 sequence (P35372 whole entry): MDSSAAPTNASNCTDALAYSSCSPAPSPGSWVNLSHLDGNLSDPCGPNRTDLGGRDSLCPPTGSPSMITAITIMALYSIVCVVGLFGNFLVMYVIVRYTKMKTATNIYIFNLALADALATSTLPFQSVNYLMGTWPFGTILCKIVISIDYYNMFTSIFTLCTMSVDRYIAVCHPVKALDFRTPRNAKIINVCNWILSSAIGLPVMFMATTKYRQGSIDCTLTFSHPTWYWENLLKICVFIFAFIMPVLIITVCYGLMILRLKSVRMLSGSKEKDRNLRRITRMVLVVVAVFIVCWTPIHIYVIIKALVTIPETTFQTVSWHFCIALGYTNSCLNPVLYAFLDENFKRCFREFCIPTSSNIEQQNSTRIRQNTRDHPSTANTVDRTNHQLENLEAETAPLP
Method for μ receptor: An adenylyl cyclase assay using human SH-SY5Y neuroblastoma cell line membranes was used to rapidly determine the opioid agonists or antagonist properties of individual peptides.
After the initial centrifugation at 200×g for 15 min at 4° C., the cells were resuspended in sucrose buffer (0.32M sucrose, 40 mM HEPES, 2 mM EDTA, pH 7.6). Cells were centrifuged again at 200×g, then homogenized in sucrose buffer with five strokes of a Dounce Homogenizer (Wheaton Instruments, Millville, N.J.). Membranes were centrifuged at 22000×g for 20 min at 4° C., then resuspended in sucrose buffer. […] SH-SY5Y membranes at a protein concentration of 1-4 mg/ml were stored at -80° C.
SH-SY5Y membranes were incubated in a final volume of 100 μl of 40 mM HEPES, pH 7.7, containing 15 units of creatine phosphokinase, 20 mM phosphocreatine, 1 mM 1,10-o-phenanthroline, 60 μM isobutylmethylxanthine (IBMX), 50 μM ATP, 50 μM GTP, 3 mM MgCl2 and 100 mM NaCl. Each of the agonists and antagonists tested were included at final concentrations of 100 μM and 500 μM, respectively. The reaction was initiated by the addition of 36 μg of membrane protein. After 15 min at 30° C., the reaction was stopped by the addition of 100μl of cold 4.5% perchloric acid. The samples were neutralized by the addition 40 μl of cold 30% potassium bicarbonate. Finally, the membranes were centrifuged at 12000×g for 4 min at 4° C. in a microcentrifuge; The amount of cyclic AMP present in 100μl of the supernatant, equivalent to the cyclic AMP produced by 15 μg of membrane protein, was determined using a cyclic AMP kit (Diagnostic Products, Los Angeles, Calif.). […] [^3 H]-cyclic AMP, 0.9 μCi, was added into 6 ml of H2 O, and 100 μl of the diluted [^3 H]-cyclic AMP was added to the assay tubes. The final supernatants were counted in 10 ml of Ecolite (+) scintillation fluid (ICN Pharmaceuticals, Covina, Calif.).

As to `C[C@@H](NC(=O)[C@@H](N)Cc1ccc(O)cc1)C(=O)NCC(=O)N(C)[C@@H](Cc1ccccc1)C(=O)NCCO` [DAMGO, [D-Ala^2,MePhe^4, Gly-ol^5]enkephalin], the “% Basal Control (cyclic AMP)” value on μ receptor (DAMGO 1 μM alone, ANTAGONISTS section) came to 61 ± 5%; on μ receptor (agonist alone, 100 μM, SH-SY5Y membranes), 34 ± 6%. The “% Basal Control +ICI 174,864” value on μ receptor (DAMGO 1 μM, ANTAGONISTS section) is listed as 95 ± 3%; at μ receptor (agonist 100 μM plus ICI 174,864 (antagonists 500 μM)), 28 ± 3%. In addition, the “% Basal Control +Naloxone” value at μ receptor (agonist 100 μM plus naloxone (antagonists 500 μM)) turned out to be 77 ± 8%.

Regarding “[dI][dM][dT][dW]G[dP]-NH2 [SEQ ID NO. 130]”, the “AGONIST OR ANTAGONIST” value in the experiment with MU RECEPTOR is listed as “Agonist”.

For the origin of these results see US5919897A (priority 1995, dated 1999).
